Where “and” joins values, the source holds several entries; their conditions need not be identical. Equal values may be shown once.
Key:
dopamine D2 receptor = dopamine D2 receptor (Homo sapiens (Human), UniProt P14416); assay: Radioligand binding assay, [3H]spiperone, membranes of D2 receptor expressing cells; settings: [3H]spiperone competition; read-out: Radioligand Binding Affinity (Ki, nM) D2
D3 = D3 (Homo sapiens (Human), UniProt P35462); assay: Radioligand binding affinity, D3
α1 = assay: Radioligand binding affinity, α1
[1] = system: canine cardiac action potentials; assay: Canine cardiac action potentials by electrocardiography and telemetry; type: in vivo; settings: dogs; for QTc intervals as compared to vehicle-administered animals: oral gavage
Description: Surgical Implantation of the Telemetry Device and ECG Leads. Anesthesia is introduced to dogs. Balanced gaseous anesthesia is used throughout the surgical procedure. Once anesthetized, animals are shaved and surgically scrubbed, encompassing surgical sites of the right inguinal area, chest and right lateral abdomen. Throughout the surgical procedure, animals are monitored for continuous assessment of vital signs. An incision is made along the right medial thigh and the femoral artery exposed by blunt dissection. Another incision is made in the lateral lumbar area cranial to the iliac crest for a tunneling needle to be passed subcutaneously from the incision on the medial thigh to the lumbar incision. A blood pressure catheter is passed through the needle from the lumbar incision and the needle removed. The femoral artery is ligated distally and incised to insert a catheter that is advanced until the tip resided in the femoral artery/abdominal aorta. The catheter is then secured by ligation. The incision in the lumbar area is enlarged and a subcutaneous pocket created in the left dorsal lumbar area to hold the transmitter body. The transmitter (e.g., Data Sciences International, St Paul, Minn., USA) is inserted into the subcutaneous pocket and secured body. Electrocardiography (ECG) leads are positioned. The incision is closed. Postoperative recovery lasts, e.g., about 2 weeks during which supplemental analgesics/antibiotics are administered as needed. Once the postoperative recovery period is complete, the animal is examined for study acceptability by the staff veterinarian and the implanted transmitter signal verified.
Study Design. […] ECGs, heart rate and arterial blood pressure data are recorded 1 hour prior to and then continuously for at least 6 hours following compound and/or vehicle administration. A blood sample for determination of compound plasma concentrations is collected from all subjects at approximately 6 h post-dose.
ECG Analysis. An ECG waveform morphology assessment, for the entire monitoring period, is completed for each dog by, e.g., a safety pharmacologist or veterinarian cardiologist. Standard ECG intervals (PR, RR, QRS and QT) are automatically measured by the data acquisition system and reported as, e.g., 10 min averages. The signals are collected with Data Sciences International Systems hardware. PR and QT manual overreads are conducted as appropriate. The manual measurements are completed from 50 mm s^−1 tracings at 30 min intervals. A mean of the three waveforms per time point are reported. QT intervals are corrected for heart rate (QTc) values by, e.g., using the formula by Funck-Bretano and Jaillon (1993).
Statistical Analysis. […] Dose-level averages (and accompanying standard deviation (s.d.) of these baseline-adjusted 10 min averages are calculated across study animals. ANOVA (e.g., repeated measures ANOVA) are applied to these baseline-adjusted averages. Pairwise t-tests are applied within the ANOVA to identify the presence of significant differences of the dose levels relative to vehicle. These t-tests are performed at a 0.05/2=0.025 significance level, so that the overall error rate across the comparisons in a given interval are not higher than 0.05. ECG interval data (reported at 30 min intervals) are analyzed using, e.g., repeated-measures ANOVA techniques similar to the systemic blood pressure and heart rate data described above.

hERG channel = hERG channel (Homo sapiens (Human), UniProt Q12809); assay: hERG voltage clamp assay in hERG-expressing cultured cells; type: cell-based; settings: for inhibition at 0.1 µM / inhibition at 1 µM / inhibition at 10 µM: human, hERG-expressing cultured cells, read-out: hERG Activity (% Inhibition of Tail Current); for inhibition at 0.1 µM: 100 nM; for IC50: read-out: concentration necessary to inhibit 50% of the tail currents mediated by hERG channels
5HT4 = 5HT4 (Homo sapiens (Human), UniProt Q13639); assay: Radioligand binding affinity, 5HT4
5HT3 = 5HT3 (Homo sapiens (Human), UniProt P46098); assay: Radioligand binding affinity, 5HT3
[2] = Therapeutic plasma concentrations
H1 = H1 (Homo sapiens (Human), UniProt P35367); assay: Radioligand binding affinity, H1
5HT2 = assay: Radioligand binding affinity, 5HT2
gastric emptying in rats [3] = assay: Solid gastric emptying in rats; type: in vivo, rat (Sprague-Dawley); settings: preliminary
[4] = system: gastric motility in canines; assay: Antral manometry (gastric motility) in canines; type: in vivo, canine; settings: for motor dysfunction: canines
Method: Animals were fed an ad libitum chow diet (LabDiet®). After an overnight fast, the dogs were anesthetized with Pentothal (sodium thiopental, 11 mg/kg IV; Abbott Laboratories, North Chicago, Ill.) and maintained on 2-4% isoflurane (Abbott Laboratories) in oxygen (1 L/min) carrier gases delivered from a ventilator after endotracheal intubation. A cannula was placed in the jejunum 20 cm distal to the pylorus for the assessment of antral motility. Dogs were allowed to recover in their individual cages for 2 weeks. All experiments were performed after the dogs were completed recovered from the surgical procedure. The study was performed according to the National Institutes of Health Guidelines on the use of laboratory animals and approved by the Animal Care and Use Committee of the University of Texas Medical Branch at Galveston, Tex. To investigate the effect of the drugs on antral manometry, the study of each drug dose was done on three randomized sessions on separate days following the consumption of one can of solid dog food: 1) a Control session: In which animals received the vehicle only; 2) Dose I session: in which the lower dose of the drug was used; and 3) Dose II session: in which the higher dose of the drug was used (please refer to table for drug doses). Drug administration was performed according to Table 4, below. [table] Antral manometry was performed as follows. Following an overnight fast, an intraluminal water-perfused manometry catheter was inserted into the antrum through the jejunal cannula. Antral manometry recording was initiated after the consumption of one can of solid food and continued for 3 hours. The catheter contained 3 manometric sensors at a 1 cm interval. Dogs were given 10 minutes of accommodation, prior to the start of the recording. For data analysis, motility index (MI), defined as the integrated area (area under curve—AUC) between baseline and contractions per hour, was calculated. For statistical analysis, the Student's t-test was used for assessment of individual differences between groups (High dose, low dose of each drug) compared to control—Microsoft® Excel 2002). All values are expressed as mean±SEM. Significance was considered when p value was ≦0.05.

gastric emptying in rats [5] = assay: Solid gastric emptying in rats; type: in vivo, rat (Sprague-Dawley)
Method: Animals: […] The animals received a standard laboratory rat chow and tap water ad libitum. The rats were around 400 g at 14 weeks age when used in gastric emptying study. Drugs: S-Carbidopa was purchased from Sigma (#: C1335). Stock solution of S-Carbidopa was prepared at 5 mg/ml using DMSO as solvent. 80 μl stock solution was further diluted into 1 ml distilled water to make 0.4 mg/ml. The effect of S-Carbidopa (1 mg/kg) on solid gastric emptying was studied. Procedures: Male SD rats were involved in this study. Rats were fasted in cages with metal wired mesh for 24 hours with free access to water; S-carbidopa (1 mg/kg) was administered to the rats by oral gavage. Control rats were not administered S-carbidopa. 15 minutes following administration, rats were given access to 2 g of rat chow pellets for ten minutes. All rats completely ingested the chow within the 10 minute time frame. Rats were sacrificed by sodium pentobarbital (100 mg/kg) overdose 90 min after feeding. The stomach was surgically isolated and removed. Gastric contents were recovered from the stomach, air dried for 48 hours and then weighed. Solid gastric emptying was calculated according to the following formula: Gastric emptying (%)=[1−(dried gastric content in g)/2 g]×100. All values are expressed as mean±SEM.

D3, sequence (P35462 whole entry): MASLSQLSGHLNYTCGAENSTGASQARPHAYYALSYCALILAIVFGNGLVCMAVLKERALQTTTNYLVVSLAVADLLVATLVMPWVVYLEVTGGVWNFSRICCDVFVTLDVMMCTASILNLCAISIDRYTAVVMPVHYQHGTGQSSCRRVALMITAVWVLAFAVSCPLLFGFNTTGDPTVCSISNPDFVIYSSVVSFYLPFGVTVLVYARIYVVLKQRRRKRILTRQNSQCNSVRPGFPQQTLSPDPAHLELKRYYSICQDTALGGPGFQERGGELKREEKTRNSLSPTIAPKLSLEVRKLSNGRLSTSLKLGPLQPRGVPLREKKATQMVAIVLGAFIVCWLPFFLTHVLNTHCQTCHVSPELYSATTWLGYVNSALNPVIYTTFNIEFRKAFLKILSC
hERG channel, sequence (Q12809 whole entry): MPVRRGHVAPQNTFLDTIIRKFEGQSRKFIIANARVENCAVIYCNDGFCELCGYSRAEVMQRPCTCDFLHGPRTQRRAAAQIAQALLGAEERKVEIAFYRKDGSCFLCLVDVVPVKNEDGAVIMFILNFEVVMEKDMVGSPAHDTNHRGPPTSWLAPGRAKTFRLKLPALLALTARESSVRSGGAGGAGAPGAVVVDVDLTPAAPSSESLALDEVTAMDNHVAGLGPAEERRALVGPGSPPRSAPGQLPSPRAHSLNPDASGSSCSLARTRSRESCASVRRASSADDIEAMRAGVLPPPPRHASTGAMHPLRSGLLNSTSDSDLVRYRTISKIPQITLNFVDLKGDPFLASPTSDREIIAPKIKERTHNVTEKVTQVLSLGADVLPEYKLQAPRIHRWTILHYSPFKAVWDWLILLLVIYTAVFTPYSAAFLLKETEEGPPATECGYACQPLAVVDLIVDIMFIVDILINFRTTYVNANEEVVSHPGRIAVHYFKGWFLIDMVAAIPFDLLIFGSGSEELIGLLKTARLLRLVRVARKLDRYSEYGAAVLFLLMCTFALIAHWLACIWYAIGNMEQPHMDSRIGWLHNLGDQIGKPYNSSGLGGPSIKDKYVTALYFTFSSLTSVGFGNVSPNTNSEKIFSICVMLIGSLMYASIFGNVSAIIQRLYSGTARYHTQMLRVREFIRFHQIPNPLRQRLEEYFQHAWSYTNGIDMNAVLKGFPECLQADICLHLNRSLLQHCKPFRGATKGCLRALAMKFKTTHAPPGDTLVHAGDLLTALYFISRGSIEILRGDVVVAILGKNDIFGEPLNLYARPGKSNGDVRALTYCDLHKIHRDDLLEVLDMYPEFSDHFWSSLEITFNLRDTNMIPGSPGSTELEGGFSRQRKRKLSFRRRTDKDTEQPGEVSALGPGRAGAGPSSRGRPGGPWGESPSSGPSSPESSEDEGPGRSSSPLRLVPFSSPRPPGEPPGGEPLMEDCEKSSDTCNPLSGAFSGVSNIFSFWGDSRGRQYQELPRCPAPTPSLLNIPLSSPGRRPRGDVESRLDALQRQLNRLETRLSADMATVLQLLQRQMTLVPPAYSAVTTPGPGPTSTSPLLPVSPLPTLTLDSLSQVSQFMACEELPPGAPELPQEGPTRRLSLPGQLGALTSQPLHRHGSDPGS
dopamine D2 receptor, sequence (P14416 whole entry, species assumed): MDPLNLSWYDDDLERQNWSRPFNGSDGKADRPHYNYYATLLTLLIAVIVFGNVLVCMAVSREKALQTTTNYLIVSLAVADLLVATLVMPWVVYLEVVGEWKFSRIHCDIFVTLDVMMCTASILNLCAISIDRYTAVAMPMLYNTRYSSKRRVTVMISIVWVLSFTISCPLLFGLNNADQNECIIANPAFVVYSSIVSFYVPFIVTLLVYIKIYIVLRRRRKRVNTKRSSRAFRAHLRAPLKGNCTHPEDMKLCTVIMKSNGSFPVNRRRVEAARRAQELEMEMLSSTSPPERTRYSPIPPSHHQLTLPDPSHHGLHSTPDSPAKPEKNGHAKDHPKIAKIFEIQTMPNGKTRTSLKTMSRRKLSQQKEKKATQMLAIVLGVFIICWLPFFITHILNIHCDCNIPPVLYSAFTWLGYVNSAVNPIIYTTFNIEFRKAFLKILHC
5HT3, sequence (P46098 24-478, species assumed): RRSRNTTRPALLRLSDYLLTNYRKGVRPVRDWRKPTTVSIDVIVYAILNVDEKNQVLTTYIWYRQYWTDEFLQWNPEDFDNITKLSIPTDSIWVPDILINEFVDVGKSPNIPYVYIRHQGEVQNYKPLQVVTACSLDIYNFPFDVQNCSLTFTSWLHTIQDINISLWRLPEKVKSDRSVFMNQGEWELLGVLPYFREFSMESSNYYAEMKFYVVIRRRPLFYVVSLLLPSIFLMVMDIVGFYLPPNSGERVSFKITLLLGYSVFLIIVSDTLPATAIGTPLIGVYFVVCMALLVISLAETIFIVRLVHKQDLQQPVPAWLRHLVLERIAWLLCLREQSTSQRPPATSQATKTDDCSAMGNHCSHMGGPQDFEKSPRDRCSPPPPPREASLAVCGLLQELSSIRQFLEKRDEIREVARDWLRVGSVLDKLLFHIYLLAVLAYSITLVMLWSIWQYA
5HT4, sequence (Q13639 whole entry, species assumed): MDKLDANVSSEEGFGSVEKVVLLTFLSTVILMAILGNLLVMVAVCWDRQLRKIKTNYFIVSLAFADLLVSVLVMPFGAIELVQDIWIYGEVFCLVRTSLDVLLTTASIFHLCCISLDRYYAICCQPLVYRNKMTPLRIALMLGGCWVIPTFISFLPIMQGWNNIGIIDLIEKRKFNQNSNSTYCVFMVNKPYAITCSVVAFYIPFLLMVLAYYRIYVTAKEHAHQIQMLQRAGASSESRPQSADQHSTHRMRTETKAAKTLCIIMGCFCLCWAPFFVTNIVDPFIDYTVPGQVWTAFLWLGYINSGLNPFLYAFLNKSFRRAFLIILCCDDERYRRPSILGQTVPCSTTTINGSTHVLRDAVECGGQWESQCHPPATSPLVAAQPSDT
H1, sequence (P35367 whole entry): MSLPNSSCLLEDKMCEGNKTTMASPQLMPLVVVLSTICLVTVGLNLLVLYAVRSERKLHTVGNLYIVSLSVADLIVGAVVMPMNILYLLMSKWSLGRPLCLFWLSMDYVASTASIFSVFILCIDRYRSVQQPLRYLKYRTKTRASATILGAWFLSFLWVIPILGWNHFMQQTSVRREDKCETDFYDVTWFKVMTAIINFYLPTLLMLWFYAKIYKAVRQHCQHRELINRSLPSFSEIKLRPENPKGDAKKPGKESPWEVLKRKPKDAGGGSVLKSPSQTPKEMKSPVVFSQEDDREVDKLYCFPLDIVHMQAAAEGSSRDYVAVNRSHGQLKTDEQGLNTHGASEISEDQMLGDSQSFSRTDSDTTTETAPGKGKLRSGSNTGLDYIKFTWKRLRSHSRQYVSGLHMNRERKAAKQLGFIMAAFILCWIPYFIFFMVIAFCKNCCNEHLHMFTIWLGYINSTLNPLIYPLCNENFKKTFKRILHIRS

Row | Compound | Ki (D3) [nM] | Ki (α1) [nM] | Radioligand Binding Affinity (Ki, nM) 5HT4 (5HT4) | Radioligand Binding Affinity (Ki, nM) 5HT3 (5HT3) | Ki (5HT2) [nM] | motor dysfunction [4] | Ki (dopamine D2 receptor) [nM] | QTc intervals as compared to vehicle-administered animals [1] | inhibition at 0.1 µM (hERG channel) [%] | inhibition at 1 µM (hERG channel) [%] | inhibition at 10 µM (hERG channel) [%] | IC50 (hERG channel) [nM] | other results
1 | CCN(CC)CCNC(=O)c1cc(Cl)c(N)cc1OC [Metoclopramide] | 16 |  |  |  |  |  | 64 |  |  |  |  |  | 
2 | CS(=O)(=O)c1ccc2c(c1)N(CCCN1CCC(C(=O)O)CC1)c1ccccc1S2 [Metopimazine acid] | > 100 | 210 | Inactive | Inactive | 370 |  |  | no significant increases | 0.2 | 4 | 11 | > 10000 | Therapeutic plasma concentrations [2]: 300 to 900 nM; Ki (H1): 140 nM
3 | CN(CCOc1ccc(NS(C)(=O)=O)cc1)CCc1ccc(NS(C)(=O)=O)cc1 [dofetilide] |  |  |  |  |  |  |  |  |  |  |  |  | incidence of premature ventricular contractions, T-wave abnormalities, and right bundle branch block ([1]; 0.3 mg/kg oral gavage): increases; QTc intervals ([1]; 0.3 mg/kg oral gavage, post-dose period of 1-6 hours): increased
4 | Cl.NCCc1ccc(O)c(O)c1 [dopamine hydrochloride, Dopamine hydrochloride] |  |  |  |  |  |  |  |  |  |  |  |  | motility index (MI), antral manometry ([4]; 50 mg/canine IV, immediately before meal, p=0.06): decreased MI in all channels

Continued, in another order:

Row | Ki (D3) [nM] | Ki (α1) [nM] | Radioligand Binding Affinity (Ki, nM) 5HT4 (5HT4) | Radioligand Binding Affinity (Ki, nM) 5HT3 (5HT3) | Ki (5HT2) [nM] | motor dysfunction [4] | Compound | Ki (dopamine D2 receptor) [nM] | QTc intervals as compared to vehicle-administered animals [1] | inhibition at 0.1 µM (hERG channel) [%] | inhibition at 1 µM (hERG channel) [%] | inhibition at 10 µM (hERG channel) [%] | IC50 (hERG channel) [nM] | other results
5 | 0.61 | 1.9 | Inactive | Inactive | 15 | no motor dysfunction was observered | CS(=O)(=O)c1ccc2c(c1)N(CCCN1CCC(C(N)=O)CC1)c1ccccc1S2 [Metopimazine, 1-[3-[2-(methylsulfonyl)-10H-phenothiazin-10-yl]propyl]-piperidine-4-carboxamide] | 0.07 | no significant increases | 4.5 | 32 | 82 | ~3000 | increase in gastric emptying as compared to vehicle control (gastric emptying in rats [3]; 3 mg/kg): about 40%; increase in gastric emptying as compared to vehicle control (gastric emptying in rats [3]; 10 mg/kg): about 18%; increase in gastric emptying as compared to vehicle control (gastric emptying in rats [3]; pooling the 3 mg/kg and 10 mg/kg doses): about 20%
6 |  |  |  |  |  | no motor dysfunction was observered | C[C@@](Cc1ccc(O)c(O)c1)(NN)C(=O)O [S-Carbidopa, (2S)-3-(3,4-dihydroxyphenyl)-2-hydrazino-2-methylpropanoic acid] |  | no significant increases |  |  |  |  | Gastric emptying (%), mean of the 3 rats (gastric emptying in rats [5]; 1 mg/kg oral gavage, 90 min after feeding): 68.2%; solid gastric emptying compared to control rats (gastric emptying in rats [5]; 1 mg/kg, rats, initial results): improves solid gastric emptying; Gastric emptying (%) (gastric emptying in rats [5]; individual rat, 1 mg/kg oral gavage, 90 min after feeding): 55% and 62% and 87.5%; stomach content (gastric emptying in rats [5]; individual rat, 1 mg/kg oral gavage, dried gastric content (g) 90 min after 2 g chow): 0.9 and 0.76 and 0.25; motor dysfunction (gastric emptying in rats [5]; rats): no motor dysfunction was observed; motility index (MI), antral manometry ([4]; 1 mg/kg IV, 15 min prior to meal, vs control, p=0.05): robustly increased MI in all three of the channels tested

Reference: patent US9132134B2, “Methods for treating GI tract disorders” (Neurogastrx, Inc., priority 2012, dated 2015)
